This assay addresses T1, sterol carrier protein-2 (SCP-2) (Homo sapiens, UniProt P22307).
T1 sequence (P22307 425-547): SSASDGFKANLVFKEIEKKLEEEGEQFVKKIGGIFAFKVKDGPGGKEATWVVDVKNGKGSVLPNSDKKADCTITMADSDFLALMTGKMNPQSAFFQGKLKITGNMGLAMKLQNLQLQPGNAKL
The assay is described as follows: fluorescent cis-parinaric acid displacement assay. It is filed as binding.

Structures are written as SMILES.

Regarding `CCCCC/C=C\C/C=C\C/C=C\C/C=C\CCCC(=O)OC(CO)CO` [2-AG, 2-arachidonoylglycerol], the affinity corresponds to a Ki of 200 ± 10 nM.

With `CCCCC/C=C\C/C=C\C/C=C\C/C=C\CCCC(=O)NCCO` [AEA, arachidonoylethanolamide], the Ki worked out at 290 ± 10 nM.

As usually defined, the Ki is a measure of affinity in units of concentration, obtained from inhibition or displacement. Low readings indicate higher affinity, high ones lower affinity.

The values are drawn from article PMC4961623 (Journal of neurochemistry, 2016).
